In patent publication US8282916B2, “Tumor therapy with replication competent sindbis viral vectors” (New York University, priority 2008, dated 2012):
“Also recorded” adds a separate entry of the source.

Test system: ES-2/Fluc ovarian cancer cells
Assay: ES-2/Fluc ovarian cancer model in SCID mice: whole body bioluminescence after daily i.p. RD-Sindbis/tk and GCV
Assay type: in vivo
Text: In the example below, SCID mice were intraperitoneally implanted with ES2 human ovarian cancer cells. In order to track and monitor disease progression, the ES2 cells were genetically engineered to express a firefly luciferase gene for bioluminescent imaging. Therefore, the bioluminescent signal intensity is proportional to the tumor load in these animals (FIG. 3B). Tumor-bearing mice were either mock treated or received daily treatments with a conventional RD-Sindbis/HSVtk vector.
An ES-2/Fluc ovarian cancer model was used to test if the HSVtk suicide gene enhanced the therapeutic effects of Sindbis vectors. […] SCID mice were inoculated with ES-2/Fluc on day 0. Daily GDEPT treatments involving i.p. injections of RD-Sindbis/tk and GCV (25 mg/Kg of body weight) were started on day 3. The Sindbis/tk −GCV group (n=5) received Sindbis/tk treatments but no GCV. The Sindbis/tk +GCV group (n=5) received both Sindbis/tk and GCV treatments. The Control group (n=5) was neither treated with Sindbis/tk nor GCV. The Control +GCV group (n=5) received no Sindbis/tk but was treated with GCV. Disease progression was monitored and the whole body photon counts were determined using the IVIS® system on days 1, 3, 6, 8, 12 and 14.

With `Nc1nc(O)c2ncn(COC(CO)CO)c2n1` [GCV, ganciclovir] the “effect of prodrug on tumor growth / tumor killing together with vector” value (GCV 25 mg/Kg daily i.p. together with daily i.p. RD-Sindbis/HSVtk from day 3) was “significantly improved anti-tumor efficacy; also recorded: dramatically enhanced the Sindbis HSVtk vector treatments and suppressed tumor growth; also recorded: enhanced the killing of Sindbis/tk-infected ES-2/Fluc cells in vivo” and the “therapeutic effect on tumor loading” value (GCV 25 mg/Kg daily i.p. without HSVtk expression (no Sindbis/tk)) was “no therapeutic effect”.
